% of inhibition, % of control and % of engagement data for 6 compounds are collected here from ChEMBL document CHEMBL5465560, “Selectivity Literature for EUbOPEN Chemogenomic Library” (2024).

The structures appear in SMILES notation.

Assay [1] concerns the target T1, Testis-specific serine/threonine-protein kinase 1 (Homo sapiens) (UniProt Q9BXA7).
T1 sequence (whole entry): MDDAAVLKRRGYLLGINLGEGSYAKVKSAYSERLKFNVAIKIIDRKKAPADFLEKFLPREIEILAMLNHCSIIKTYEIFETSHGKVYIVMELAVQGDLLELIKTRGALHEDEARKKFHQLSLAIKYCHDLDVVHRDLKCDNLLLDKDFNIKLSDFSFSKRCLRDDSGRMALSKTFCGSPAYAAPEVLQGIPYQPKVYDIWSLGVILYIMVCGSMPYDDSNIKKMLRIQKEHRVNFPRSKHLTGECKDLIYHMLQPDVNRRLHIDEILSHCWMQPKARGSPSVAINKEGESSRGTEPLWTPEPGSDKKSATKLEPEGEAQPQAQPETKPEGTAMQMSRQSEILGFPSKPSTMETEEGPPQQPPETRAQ
Nature of the assay: Selectivity interaction (Upstate Kinase Profiler service (Millipore)) EUB0000056c TSSK1A. Particulars: at 1 µM.

The target of assay [2] is Proto-oncogene tyrosine-protein kinase ROS (Homo sapiens) (UniProt P08922). Particulars: at 10 µM.
Assay [3] deals with Phosphatidylinositol 4-phosphate 5-kinase type-1 alpha (Homo sapiens) (UniProt Q99755). The experiment in a line: Selectivity interaction (KinomeScan (DiscoverX)) EUB0000655a PIP5K1A. Particulars: at 10 µM.
Assay [4] addresses Death-associated protein kinase 1 (Homo sapiens, UniProt P53355). The experiment in a line: Selectivity interaction (KinomeScan (DiscoverX)) EUB0000655a DAPK1. Particulars: at 10 µM.
Assay [5] concerns the target T2, Cytoplasmic tyrosine-protein kinase BMX (Homo sapiens) (UniProt P51813).
T2 sequence (whole entry): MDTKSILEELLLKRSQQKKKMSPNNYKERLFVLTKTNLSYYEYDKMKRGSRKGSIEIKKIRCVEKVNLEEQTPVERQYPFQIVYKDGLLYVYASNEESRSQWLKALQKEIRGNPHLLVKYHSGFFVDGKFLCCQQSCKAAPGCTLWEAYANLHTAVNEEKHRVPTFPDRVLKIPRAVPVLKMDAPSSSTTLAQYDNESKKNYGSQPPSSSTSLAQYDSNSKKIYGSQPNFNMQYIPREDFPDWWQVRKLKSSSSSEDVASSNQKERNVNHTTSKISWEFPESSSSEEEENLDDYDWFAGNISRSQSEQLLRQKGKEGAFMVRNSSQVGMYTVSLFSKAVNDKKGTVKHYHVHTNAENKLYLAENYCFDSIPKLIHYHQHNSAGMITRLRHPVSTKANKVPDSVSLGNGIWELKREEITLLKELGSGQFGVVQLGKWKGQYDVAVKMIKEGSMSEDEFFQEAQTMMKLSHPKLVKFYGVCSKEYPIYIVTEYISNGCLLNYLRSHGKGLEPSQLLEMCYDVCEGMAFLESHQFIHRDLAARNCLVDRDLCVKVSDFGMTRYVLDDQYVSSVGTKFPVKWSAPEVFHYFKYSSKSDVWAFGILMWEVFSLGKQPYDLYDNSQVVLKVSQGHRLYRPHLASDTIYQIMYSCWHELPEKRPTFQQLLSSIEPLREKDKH
Nature of the assay: Selectivity interaction (KinomeScan (DiscoverX)) EUB0000666a BMX. Particulars: at 10 µM.

Assay [6] has as its target T3, Serine/threonine-protein kinase TBK1 (Homo sapiens) (UniProt Q9UHD2).
T3 sequence (whole entry): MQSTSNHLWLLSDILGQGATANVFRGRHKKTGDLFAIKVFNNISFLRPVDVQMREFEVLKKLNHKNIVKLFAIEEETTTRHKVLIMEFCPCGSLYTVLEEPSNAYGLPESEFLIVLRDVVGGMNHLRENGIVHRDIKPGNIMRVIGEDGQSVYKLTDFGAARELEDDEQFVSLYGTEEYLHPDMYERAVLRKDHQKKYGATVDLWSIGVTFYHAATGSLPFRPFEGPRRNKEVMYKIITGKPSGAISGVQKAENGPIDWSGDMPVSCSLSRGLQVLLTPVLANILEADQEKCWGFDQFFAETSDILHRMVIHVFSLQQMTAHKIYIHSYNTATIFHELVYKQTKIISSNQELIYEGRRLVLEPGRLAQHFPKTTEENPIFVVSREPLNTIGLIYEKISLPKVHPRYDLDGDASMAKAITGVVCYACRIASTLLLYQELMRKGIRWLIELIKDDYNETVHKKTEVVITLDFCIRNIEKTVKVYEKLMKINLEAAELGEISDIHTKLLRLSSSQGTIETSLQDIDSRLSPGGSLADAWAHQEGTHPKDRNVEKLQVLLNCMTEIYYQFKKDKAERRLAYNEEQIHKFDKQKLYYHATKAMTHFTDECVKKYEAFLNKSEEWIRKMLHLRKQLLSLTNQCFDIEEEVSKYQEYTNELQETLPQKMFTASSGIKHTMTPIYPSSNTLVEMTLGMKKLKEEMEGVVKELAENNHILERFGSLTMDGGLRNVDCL
The experiment in a line: Selectivity interaction (ActivX KiNativ screen (kinase selectivity in THP-1 cell lysates)) EUB0000639a TBK1. Format: subcellular. Particulars: lysate.

The target in assay [7] is Calcium/calmodulin-dependent protein kinase type 1D (Homo sapiens) (UniProt Q8IU85). Nature of the assay: Selectivity interaction (Kinase panel (KiNativ target engagement assay in Jurkat cells)) EUB0001635a CAMK1D. Format: cell-based. Particulars: at 1 µM.
Calcium/calmodulin-dependent protein kinase type 1D (Homo sapiens), sequence (Q8IU85 whole entry, looked up): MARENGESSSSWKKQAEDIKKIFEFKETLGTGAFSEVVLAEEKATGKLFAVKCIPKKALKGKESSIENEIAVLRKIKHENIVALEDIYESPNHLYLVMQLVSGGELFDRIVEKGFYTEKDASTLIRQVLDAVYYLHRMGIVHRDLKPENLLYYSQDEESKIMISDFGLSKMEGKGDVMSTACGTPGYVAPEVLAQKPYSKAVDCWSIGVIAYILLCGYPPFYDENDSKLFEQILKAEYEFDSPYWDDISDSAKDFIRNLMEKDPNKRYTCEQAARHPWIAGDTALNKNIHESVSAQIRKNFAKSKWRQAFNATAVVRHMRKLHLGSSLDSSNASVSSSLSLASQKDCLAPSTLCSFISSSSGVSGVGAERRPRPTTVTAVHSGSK

Death-associated protein kinase 1, sequence (P53355 whole entry, looked up): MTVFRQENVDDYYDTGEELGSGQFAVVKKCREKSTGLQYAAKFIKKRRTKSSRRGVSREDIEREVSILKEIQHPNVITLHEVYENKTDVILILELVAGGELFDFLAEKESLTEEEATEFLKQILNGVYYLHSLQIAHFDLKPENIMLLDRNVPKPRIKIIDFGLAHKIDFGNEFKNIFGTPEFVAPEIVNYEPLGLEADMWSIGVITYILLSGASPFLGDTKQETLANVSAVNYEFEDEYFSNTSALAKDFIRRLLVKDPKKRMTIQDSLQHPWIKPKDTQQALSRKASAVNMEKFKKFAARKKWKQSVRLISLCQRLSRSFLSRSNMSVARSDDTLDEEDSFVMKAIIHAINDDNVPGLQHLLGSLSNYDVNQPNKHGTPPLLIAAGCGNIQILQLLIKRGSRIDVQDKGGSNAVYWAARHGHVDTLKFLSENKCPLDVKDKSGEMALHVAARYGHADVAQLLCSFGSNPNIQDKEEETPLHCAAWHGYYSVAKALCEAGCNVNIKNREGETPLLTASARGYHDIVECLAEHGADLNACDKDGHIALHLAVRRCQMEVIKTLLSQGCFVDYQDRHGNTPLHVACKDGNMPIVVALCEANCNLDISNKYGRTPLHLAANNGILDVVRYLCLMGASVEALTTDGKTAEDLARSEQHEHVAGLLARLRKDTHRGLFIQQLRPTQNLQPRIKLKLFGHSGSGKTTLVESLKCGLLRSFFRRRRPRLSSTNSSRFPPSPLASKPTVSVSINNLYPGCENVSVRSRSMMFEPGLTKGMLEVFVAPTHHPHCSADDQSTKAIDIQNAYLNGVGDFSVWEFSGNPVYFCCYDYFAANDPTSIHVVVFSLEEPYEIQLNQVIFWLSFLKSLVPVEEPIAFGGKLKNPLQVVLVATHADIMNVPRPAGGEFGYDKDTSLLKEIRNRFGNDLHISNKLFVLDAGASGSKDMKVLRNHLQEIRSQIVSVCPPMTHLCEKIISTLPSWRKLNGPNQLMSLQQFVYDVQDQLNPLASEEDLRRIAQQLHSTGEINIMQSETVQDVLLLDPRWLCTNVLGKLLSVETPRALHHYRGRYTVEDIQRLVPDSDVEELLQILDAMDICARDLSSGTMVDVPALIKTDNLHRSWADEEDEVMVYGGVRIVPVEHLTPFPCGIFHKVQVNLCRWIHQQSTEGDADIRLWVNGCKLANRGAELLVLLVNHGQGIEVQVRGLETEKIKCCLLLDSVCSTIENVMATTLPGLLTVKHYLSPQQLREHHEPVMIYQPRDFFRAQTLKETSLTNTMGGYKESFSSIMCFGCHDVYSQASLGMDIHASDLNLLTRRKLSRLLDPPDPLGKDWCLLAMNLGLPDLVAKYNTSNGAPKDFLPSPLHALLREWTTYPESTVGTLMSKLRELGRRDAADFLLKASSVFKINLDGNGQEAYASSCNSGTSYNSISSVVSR
Proto-oncogene tyrosine-protein kinase ROS (Homo sapiens), sequence (P08922 whole entry): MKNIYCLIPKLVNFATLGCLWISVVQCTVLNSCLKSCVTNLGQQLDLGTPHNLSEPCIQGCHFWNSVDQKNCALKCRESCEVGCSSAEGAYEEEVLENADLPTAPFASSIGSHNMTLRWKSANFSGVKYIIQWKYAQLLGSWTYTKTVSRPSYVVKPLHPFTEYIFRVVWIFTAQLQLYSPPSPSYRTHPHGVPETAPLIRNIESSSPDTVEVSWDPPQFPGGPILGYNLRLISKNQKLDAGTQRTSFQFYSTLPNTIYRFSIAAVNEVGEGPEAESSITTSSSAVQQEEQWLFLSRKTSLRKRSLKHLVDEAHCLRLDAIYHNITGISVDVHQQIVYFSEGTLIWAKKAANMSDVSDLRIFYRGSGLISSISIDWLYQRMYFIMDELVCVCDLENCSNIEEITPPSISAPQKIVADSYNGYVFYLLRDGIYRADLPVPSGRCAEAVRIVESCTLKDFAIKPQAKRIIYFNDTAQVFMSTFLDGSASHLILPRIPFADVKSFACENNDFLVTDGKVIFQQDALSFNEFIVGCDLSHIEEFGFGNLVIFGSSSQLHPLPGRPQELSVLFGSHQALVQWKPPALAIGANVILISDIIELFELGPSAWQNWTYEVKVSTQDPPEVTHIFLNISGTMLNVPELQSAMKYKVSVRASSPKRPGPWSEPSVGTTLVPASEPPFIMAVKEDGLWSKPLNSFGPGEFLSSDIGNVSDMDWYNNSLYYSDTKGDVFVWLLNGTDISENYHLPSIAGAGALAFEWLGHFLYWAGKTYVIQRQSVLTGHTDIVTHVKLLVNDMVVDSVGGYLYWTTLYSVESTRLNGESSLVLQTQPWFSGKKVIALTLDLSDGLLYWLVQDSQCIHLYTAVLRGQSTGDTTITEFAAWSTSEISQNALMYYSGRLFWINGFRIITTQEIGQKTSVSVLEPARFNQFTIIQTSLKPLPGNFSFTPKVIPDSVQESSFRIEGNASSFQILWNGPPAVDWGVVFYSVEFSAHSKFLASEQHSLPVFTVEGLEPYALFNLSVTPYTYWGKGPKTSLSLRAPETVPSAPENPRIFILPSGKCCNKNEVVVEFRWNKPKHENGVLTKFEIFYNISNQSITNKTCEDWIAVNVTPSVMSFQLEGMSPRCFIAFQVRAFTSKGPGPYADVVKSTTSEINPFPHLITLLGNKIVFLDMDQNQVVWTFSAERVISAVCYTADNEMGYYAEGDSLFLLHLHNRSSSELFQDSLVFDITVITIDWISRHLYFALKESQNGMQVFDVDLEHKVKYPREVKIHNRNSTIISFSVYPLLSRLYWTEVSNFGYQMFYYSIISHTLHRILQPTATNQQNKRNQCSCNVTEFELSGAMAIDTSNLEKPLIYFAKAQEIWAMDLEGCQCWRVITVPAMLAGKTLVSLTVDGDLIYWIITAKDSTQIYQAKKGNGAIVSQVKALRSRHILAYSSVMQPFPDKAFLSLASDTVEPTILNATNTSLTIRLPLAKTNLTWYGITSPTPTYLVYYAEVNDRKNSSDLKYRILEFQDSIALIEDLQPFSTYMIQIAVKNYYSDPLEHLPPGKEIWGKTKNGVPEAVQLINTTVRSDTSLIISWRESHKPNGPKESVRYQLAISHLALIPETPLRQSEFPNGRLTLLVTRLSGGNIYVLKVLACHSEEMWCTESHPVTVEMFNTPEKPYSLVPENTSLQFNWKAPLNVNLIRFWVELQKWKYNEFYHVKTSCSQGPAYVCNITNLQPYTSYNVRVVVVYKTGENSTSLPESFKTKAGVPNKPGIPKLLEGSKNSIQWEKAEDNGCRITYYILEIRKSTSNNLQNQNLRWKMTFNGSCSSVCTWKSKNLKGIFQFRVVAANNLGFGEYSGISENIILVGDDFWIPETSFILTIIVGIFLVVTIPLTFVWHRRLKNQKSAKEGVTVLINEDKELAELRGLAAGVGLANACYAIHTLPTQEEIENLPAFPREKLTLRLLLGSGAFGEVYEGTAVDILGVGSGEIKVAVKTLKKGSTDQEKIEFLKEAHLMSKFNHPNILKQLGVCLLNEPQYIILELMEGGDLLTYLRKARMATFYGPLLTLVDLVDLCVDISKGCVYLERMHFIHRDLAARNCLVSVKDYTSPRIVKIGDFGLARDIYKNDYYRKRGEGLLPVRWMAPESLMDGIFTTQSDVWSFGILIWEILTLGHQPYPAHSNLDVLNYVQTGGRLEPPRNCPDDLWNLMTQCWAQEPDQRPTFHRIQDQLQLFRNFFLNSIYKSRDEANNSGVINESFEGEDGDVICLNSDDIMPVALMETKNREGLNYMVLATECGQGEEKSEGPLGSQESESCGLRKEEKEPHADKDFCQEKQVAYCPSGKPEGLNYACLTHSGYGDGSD
Phosphatidylinositol 4-phosphate 5-kinase type-1 alpha (Homo sapiens), sequence (Q99755 whole entry): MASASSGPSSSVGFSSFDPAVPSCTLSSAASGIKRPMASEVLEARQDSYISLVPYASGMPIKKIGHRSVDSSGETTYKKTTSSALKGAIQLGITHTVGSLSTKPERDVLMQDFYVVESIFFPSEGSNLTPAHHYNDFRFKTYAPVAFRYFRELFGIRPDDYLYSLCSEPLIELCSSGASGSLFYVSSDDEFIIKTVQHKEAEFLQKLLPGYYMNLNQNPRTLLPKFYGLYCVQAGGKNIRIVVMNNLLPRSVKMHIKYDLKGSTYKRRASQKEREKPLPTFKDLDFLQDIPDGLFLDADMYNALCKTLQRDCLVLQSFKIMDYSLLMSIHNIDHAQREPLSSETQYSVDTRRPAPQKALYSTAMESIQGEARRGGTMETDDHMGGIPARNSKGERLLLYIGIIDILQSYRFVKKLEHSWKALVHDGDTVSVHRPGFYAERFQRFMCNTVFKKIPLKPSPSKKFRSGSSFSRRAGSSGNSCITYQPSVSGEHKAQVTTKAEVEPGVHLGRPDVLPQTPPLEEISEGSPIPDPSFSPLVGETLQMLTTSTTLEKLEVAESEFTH

Turning to `Cc1ccc(-c2ccc3c(ccc4sc5c(c43)NC[C@@H](C)NC5=O)n2)cn1`, the % of inhibition in assay [1] is 35%.
For the compound `CCN(CC)CCCCNc1ncc2cc(-c3cc(OC)cc(OC)c3)c(NC(=O)NC(C)(C)C)nc2n1`, in assay [2], the % of control was 100%.
On to `CN(C)CCOc1ccc(-c2nc(-c3ccncc3)c(-c3ccc4c(c3)CC/C4=N\O)[nH]2)cc1`, for which the values for the % of control in assay [3] and in assay [4] were 100% and 99%, respectively.
On to `O=C(NOC[C@H](O)CO)c1ccc(F)c(F)c1Nc1ccc(I)cc1F`, for which the % of control in assay [5] turned out to be 92%.
Consider `CC[C@@H]1[C@H](F)C(=O)N[C@@H]1COc1nccc2cc(C(N)=O)c(OC)cc12` [ZIMLOVISERTIB], for which the % of inhibition is -51.9% in assay [6] (at 0.01 µM); -22.2% in assay [6] (at 0.04 µM); -29.9% in assay [6] (at 0.2 µM); 10% in assay [6] (at 1 µM); 26.2% in assay [6] (at 5 µM).
On to `C=CC(=O)Nc1ccc(C(=O)Nc2[nH]nc3c2CN(C(=O)N[C@H](CN(C)C)c2ccccc2)C3(C)C)cc1`, for which the % of engagement in assay [7] (Selectivity number of off-targets 0.0, Selectivity number of targets 233.0, Source Knowledge https://www.sciencedirect.com/science/article/pii/S2451945619300674?via%3Dihub) amounted to 18.9%; in assay [7] it was 8.9%.
